Data set [1] concerns neonatal rat model of necrotizing enterocolitis. Description: Neonatal rat model of necrotizing enterocolitis: clinical (macroscopic) assessment of small intestine on autopsy. Particulars: for discoloration (visual assessment of luminal blood) / stenosis: FIG. 3; for clinical scoring on autopsy (overall clinical appearance, pathology/damage scores): FIG. 2. The format is in vivo. Here is the method:
(§1) These studies utilized a well-validated neonatal rat model of necrotizing enterocolitis (14). Briefly, neonatal Sprague-Dawley rats (Charles River Laboratories Inc., Wilmington, Mass.) were collected from their mothers immediately after birth, prior to suckling maternal milk. Animals were weighed and placed in infant incubators to control body temperature. Subsequently, rats were hand fed via the orogastric route 0.1 ml of rat milk substitute (RMS) consisting of prepared infant formula (Esbilac formula, Pet-Ag, New Hampshire, Ill.) plus or minus the therapeutic supplement every three hours. EGF (Austral Biologics, San Ramon, Calif.) was produced by genetically engineered yeast and purified by sequential chromatography and reverse phase high pressure liquid chromatography (HPLC) and determined to be >97% pure by N-terminal amino acid sequencing, amino acid composition, HPLC analysis and SDS gel electrophoresis. Arginine (L-arginine hydrochloride, crystalline, ICN Biomedicals Inc, Aurora, Ohio) was produced by a proprietary synthetic process. EGF (100 ng/ml) and L-arginine (1.35-2.7 mg/ml) were admininstered based on daily feed intake to achieve a dose of 1.5 mmol/kg/day of L-arginine (in standardized units these doses work out to ˜20 ug EGF/kg/day and ˜316 mg L-arginine/kg/day, for a ratio of about 1:472 500 mole/mole). The EGF and L-arginine were gently vortexed and thoroughly mixed into the Esbilac infant formula. After 48 hrs of feeding, volumes were advanced slowly to 0.3 ml as tolerated. To induce clinical disease rats were stressed twice daily with asphyxia by breathing 100% nitrogen gas for 60 sec followed by cold stress at 4° C. for 10 min starting one hour after birth.
Six separate experimental groups were studied: unstressed rats artificially fed with EGF-free rat milk substitute (RMS) (Control, n=10); stressed rats that were dam-fed (Control (s), n=7); stressed rats artificially fed EGF-free RMS (NEC, n=10); stressed rats artificially fed RMS supplemented with 100 ng/ml recombinant human EGF (EGF-NEC, n=6); stressed rats artificially fed RMS supplemented with 1.5 mmol L-arginine/kg/day (ARG-NEC, n=6); and stressed rats artificially fed RMS supplemented with 100 ng/ml recombinant human EGF+1.5 mmol L-arginine/kg/day (EGF/ARG-NEC, n=8). Animals that developed abdominal distension, respiratory distress or lethargy during the 96-hour course of the experiment were terminated. After 96 hours all surviving animals were killed by decapitation and the small intestine removed for further analysis.
(§2) Body weights and tail lengths were recorded daily, and twice daily urination and defecation was induced by gentle stimulation of the anogenital region and stool collected for future analysis. The small intestine was visually assessed for clinical signs of NEC such as intestinal hemorrhage and discoloration, and ileal distension and stenosis. The small intestine was then divided into two halves and 2-3 cm of tissue from the distal segment (ileum) fixed, embedded in paraffin, and counterstained with hematoxylin and eosin for histological evaluation of NEC (14). Histology was evaluated in a blinded manner and graded as follows: normal (0) showing no damage; mild (+1) showing slight submucosal and/or lamina propria separation (+2); moderate (+2) displaying moderate separation of the submucosa and/or lamina propria, and/or edema in the submucosal and muscular layers; severe (+3) showing severe separation of submucosa and/or lamina propria, and/or severe edema in the submucosal and muscular layers, and regional villus sloughing; necrosis (+4) displaying loss of villi and necrosis (14). The length of the remaining ileum was measured and the tissue homogenized in 2.5 mM ethylenediaminetetraacetic acid (EDTA), snap frozen in liquid nitrogen, and stored at […] for later analysis of lactase activity (21) and ileal protein (5) and DNA (3 1) content.
(§3) Data are expressed as means ±SE. […]

For data set [2] the test system is unchanged. Briefly: Neonatal rat model of necrotizing enterocolitis: histological evaluation of distal ileal tissue. Type of data set: in vivo. Particulars: for histological damage scores: distal ileal tissue, compared to NEC animals, FIG. 5; for appearance of ileal tissue sections (photomicrographs): distal ileum, hematoxylin and eosin, FIG. 4. As for the experimental part: as §1, with “To induce clinical disease rats were stressed twice daily with asphyxia by breathing 100% nitrogen gas for 60 sec followed by cold stress at 4° C. for 10 min starting one hour after birth.” left out
as §2, with “The small intestine was then divided into two halves and 2-3 cm of tissue from the distal segment (ileum) fixed, embedded in paraffin, and counterstained with hematoxylin and eosin for histological evaluation of NEC (14).” left out
as §3

Data set [3] has as its system lactase. Description: Neonatal rat model of necrotizing enterocolitis: total lactase activity in distal ileal tissue. The format is in vivo. The conditions noted are these: compared to untreated NEC rats, FIG. 6. Here is the method:
These studies utilized a well-validated neonatal rat model of necrotizing enterocolitis (14). Briefly, neonatal Sprague-Dawley rats (Charles River Laboratories Inc., Wilmington, Mass.) were collected from their mothers immediately after birth, prior to suckling maternal milk. Animals were weighed and placed in infant incubators to control body temperature. Subsequently, rats were hand fed via the orogastric route 0.1 ml of rat milk substitute (RMS) consisting of prepared infant formula (Esbilac formula, Pet-Ag, New Hampshire, Ill.) plus or minus the therapeutic supplement every three hours. EGF (Austral Biologics, San Ramon, Calif.) was produced by genetically engineered yeast and purified by sequential chromatography and reverse phase high pressure liquid chromatography (HPLC) and determined to be >97% pure by N-terminal amino acid sequencing, amino acid composition, HPLC analysis and SDS gel electrophoresis. […]
Body weights and tail lengths were recorded daily, and twice daily urination and defecation was induced by gentle stimulation of the anogenital region and stool collected for future analysis. The small intestine was visually assessed for clinical signs of NEC such as intestinal hemorrhage and discoloration, and ileal distension and stenosis. […]
as §3

The test system of data set [4] is necrotizing enterocolitis. The conditions noted are these: 152 infants, birthweight ≦1250 g, gestational age ≦32 weeks; dietary L-arginine supplementation; reduced from 27%; cited from earlier work.
Data set [5] deals with neonatal piglet model of NEC. The conditions noted are these: infusion; cited from earlier work.
For data set [6], the system named is necrotizing enterocolitis. The conditions noted are these: cited from earlier work.
Setting [7] is: stressed neonatal rats, RMS with EGF 100 ng/ml and/or L-arginine 1.5 mmol/kg/day, 96 h, compared to untreated (NEC) group.

Entries after “also recorded” stand apart in the source; their conditions may differ.

`N=C(N)NCCCC(N)C(=O)O` (stereo not shown) [Arg, 2-amino-5-guanidinovaleric acid]: the “discoloration (visual assessment of luminal blood)” value in data set [1] (compared to controls) was “significantly elevated”; in data set [1] (compared to untreated group) it was “significantly less discoloration than observed in the untreated group”; in data set [1] (compared to untreated group, listed as L-arginine), “decreased the appearance of blood in the lumen”. For the same compound, the stenosis entry in data set [1] (compared to controls) is reported as “significant stenosis”. Besides, the “clinical scoring on autopsy (overall clinical appearance, pathology/damage scores)” value in data set [1] (setting [7]) was “did not differ”. Moreover, the histological damage scores result in data set [2] is listed as “did not differ”. Further, in data set [2], the “appearance of ileal tissue sections (photomicrographs)” value is “Significant damage”. For the same compound, in data set [3], the total lactase activity entry was “did not alter the deficit in lactase activity”. Besides, the “incidence of NEC” value in data set [4] is 7%. Further, the intestinal injury result in data set [5] is “markedly reduced intestinal injury”.
Take “EGF: 53-amino acid protein, human EGF sequence SEQ ID NO: 1, produced by genetically engineered yeast (Austral Biologics)”: in data set [1] (compared to controls), the “discoloration (visual assessment of luminal blood)” value is “significantly elevated” and the stenosis entry is listed as “significant stenosis”. The “clinical scoring on autopsy (overall clinical appearance, pathology/damage scores)” value in data set [1] (same treatment, compared to control animals) is recorded as “still significantly increased over control animals”. Further, the “clinical scoring on autopsy (overall clinical appearance, pathology/damage scores)” value in data set [1] (setting [7]) is “significantly less than that observed in the untreated (NEC) group; also recorded: some protection against physical damage to the intestine”. Further, in data set [2], the histological damage scores result is on record as “did not differ” and the “appearance of ileal tissue sections (photomicrographs)” value was “Significant damage”. The total lactase activity entry in data set [3] was “did not alter the deficit in lactase activity”. For the same compound, the protective effect entry in data set [6] (EGF at 500 ng/ml) is “protective effect”. Also, the clinical benefit result in data set [6] (EGF at physiological concentration of 100 ng/ml) is “no significant clinical benefit”.

Source of the values: patent US20070254837A1, “Treatment for Necrotizing Enterocolitis” (UNIVERSITY TECHNOLOGIES INTERNATIONAL INC., priority 2003, published 2007).
